Experimental data published in paper PMC12192500, “Selective Dual Inhibition of TNKS1 and CDK8 by TCS9725 Attenuates STAT1/β-Catenin/TGFβ1 Signaling in Renal Cancer” (Current Issues in Molecular Biology, 2025).

Key:
[1] = target: CDK8 (Cyclin-dependent kinase 8) (Homo sapiens, UniProt P49336); assay: luminescence-based kinase assay; assay type: biochemical
[2] = target: T1, TNKS1 (Tankyrase 1, PARP5A) (Homo sapiens, UniProt O95271); assay: TNKS1 colorimetric PARP activity assay kit (BPS #[…]), histone-coated plate; assay type: biochemical
T1 construct: gene TNKS
T1 sequence (O95271 whole entry): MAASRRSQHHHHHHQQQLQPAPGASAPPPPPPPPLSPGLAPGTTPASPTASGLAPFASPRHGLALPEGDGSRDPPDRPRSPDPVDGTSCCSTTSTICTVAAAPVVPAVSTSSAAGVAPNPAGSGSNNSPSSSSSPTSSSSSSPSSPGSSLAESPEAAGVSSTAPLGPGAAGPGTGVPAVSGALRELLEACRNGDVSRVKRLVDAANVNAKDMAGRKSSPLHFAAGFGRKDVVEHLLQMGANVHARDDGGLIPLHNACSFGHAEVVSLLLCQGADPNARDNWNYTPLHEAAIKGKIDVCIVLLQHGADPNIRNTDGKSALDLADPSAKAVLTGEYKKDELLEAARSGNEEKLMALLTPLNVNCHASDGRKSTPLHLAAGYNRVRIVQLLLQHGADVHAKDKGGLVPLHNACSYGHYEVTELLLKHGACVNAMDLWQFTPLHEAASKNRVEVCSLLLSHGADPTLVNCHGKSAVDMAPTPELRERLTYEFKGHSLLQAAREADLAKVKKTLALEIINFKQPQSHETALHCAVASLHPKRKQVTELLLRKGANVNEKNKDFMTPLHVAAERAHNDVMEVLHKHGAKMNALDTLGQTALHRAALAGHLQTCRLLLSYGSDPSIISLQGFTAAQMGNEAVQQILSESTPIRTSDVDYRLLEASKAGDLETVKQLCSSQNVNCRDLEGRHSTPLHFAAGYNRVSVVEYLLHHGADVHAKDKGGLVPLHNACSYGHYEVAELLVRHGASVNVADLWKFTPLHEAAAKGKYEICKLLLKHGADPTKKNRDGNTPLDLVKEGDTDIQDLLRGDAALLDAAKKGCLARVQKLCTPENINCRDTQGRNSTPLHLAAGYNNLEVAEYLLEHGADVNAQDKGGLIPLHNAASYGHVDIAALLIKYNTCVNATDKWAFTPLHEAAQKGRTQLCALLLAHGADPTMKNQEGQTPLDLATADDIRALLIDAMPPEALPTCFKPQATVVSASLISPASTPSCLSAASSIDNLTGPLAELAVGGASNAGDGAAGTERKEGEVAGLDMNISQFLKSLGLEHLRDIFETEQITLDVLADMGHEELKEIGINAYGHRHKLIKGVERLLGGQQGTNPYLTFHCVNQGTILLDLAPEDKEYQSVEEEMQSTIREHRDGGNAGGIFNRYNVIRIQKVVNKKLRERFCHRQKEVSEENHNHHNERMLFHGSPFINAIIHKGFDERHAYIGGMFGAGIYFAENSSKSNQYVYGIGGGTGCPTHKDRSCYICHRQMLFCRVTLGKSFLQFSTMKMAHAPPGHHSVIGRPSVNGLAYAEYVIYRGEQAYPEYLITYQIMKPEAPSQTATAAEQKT

Chain of CDK8 (Cyclin-dependent kinase 8) (P49336 whole entry): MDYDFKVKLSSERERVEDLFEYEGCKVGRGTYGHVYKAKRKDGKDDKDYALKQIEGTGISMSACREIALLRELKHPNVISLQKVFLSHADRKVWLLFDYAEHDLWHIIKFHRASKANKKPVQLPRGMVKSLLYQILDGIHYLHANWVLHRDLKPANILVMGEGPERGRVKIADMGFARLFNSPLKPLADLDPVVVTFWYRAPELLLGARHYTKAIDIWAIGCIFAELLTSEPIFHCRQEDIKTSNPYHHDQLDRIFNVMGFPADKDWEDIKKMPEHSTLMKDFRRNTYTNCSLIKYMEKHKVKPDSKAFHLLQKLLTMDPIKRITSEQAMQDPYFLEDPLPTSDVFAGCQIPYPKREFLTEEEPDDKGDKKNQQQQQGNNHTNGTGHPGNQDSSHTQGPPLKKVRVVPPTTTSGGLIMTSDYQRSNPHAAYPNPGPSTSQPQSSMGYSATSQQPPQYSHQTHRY

## O=c1cccc(-c2ccc(Cl)cc2)o1 [TCS9725, 6-(4-chlorophenyl)-2H-pyran-2-one]
[1]
  IC50: 404 nM
[2]
  IC50: 243 nM
